For the data set, the target named is MDR1 (ABCB1, P-glycoprotein) (Homo sapiens, UniProt P08183). The data set is described as follows: Inhibition of MDR1 in multidrug resistant human A2780/DX3 cells assessed as accumulation of doxorubicin at 5 times compound concentration that giving 5% antiproliferative activity after 4 hrs by cytofluorimetric assay relative to (Z)-8-(4-chlorophenyl)-5-methyl-8-(pent-2-enyl-oxy)-[1,2,4]oxadiazolo[3,4-c][1,4]thiazin-3(8H)-one. It is filed as cell-based, A2780 ADR. The following applies: probe doxorubicin.
MDR1 (ABCB1, P-glycoprotein), sequence (P08183 whole entry): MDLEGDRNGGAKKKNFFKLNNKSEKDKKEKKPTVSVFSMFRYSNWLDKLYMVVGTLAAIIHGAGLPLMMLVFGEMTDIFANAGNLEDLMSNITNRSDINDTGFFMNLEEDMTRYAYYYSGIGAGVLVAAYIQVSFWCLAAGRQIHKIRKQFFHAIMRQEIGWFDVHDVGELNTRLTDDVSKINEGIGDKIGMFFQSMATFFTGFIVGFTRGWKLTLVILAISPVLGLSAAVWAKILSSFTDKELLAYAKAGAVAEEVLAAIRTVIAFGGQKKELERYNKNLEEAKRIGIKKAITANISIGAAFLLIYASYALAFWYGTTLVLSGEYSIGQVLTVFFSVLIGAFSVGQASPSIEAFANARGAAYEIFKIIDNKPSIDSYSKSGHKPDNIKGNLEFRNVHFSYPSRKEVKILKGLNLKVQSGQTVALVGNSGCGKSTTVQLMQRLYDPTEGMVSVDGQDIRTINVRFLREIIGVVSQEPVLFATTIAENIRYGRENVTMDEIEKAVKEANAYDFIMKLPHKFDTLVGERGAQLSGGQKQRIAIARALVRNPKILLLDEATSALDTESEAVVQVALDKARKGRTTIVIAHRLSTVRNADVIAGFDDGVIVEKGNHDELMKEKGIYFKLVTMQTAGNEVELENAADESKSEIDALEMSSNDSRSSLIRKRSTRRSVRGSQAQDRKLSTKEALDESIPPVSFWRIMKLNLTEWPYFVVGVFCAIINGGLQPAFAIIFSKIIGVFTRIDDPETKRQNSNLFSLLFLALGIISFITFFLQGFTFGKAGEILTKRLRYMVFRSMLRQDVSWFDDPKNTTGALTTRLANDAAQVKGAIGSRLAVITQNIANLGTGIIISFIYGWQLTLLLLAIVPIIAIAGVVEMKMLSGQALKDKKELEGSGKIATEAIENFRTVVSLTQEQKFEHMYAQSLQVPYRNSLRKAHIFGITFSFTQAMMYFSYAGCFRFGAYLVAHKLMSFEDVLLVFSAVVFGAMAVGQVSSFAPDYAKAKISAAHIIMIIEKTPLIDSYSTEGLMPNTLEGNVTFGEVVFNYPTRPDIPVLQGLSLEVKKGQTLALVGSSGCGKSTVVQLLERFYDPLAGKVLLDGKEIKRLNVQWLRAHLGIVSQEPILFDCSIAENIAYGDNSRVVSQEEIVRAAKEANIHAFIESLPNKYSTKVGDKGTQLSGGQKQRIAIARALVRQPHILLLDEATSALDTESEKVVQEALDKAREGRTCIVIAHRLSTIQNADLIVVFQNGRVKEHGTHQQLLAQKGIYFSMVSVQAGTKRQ

On to `CC/C=C\CO[C@]1(c2ccc(Cl)cc2)SC=C(C)n2c1noc2=O`, for which the inhibition at 4 h was determined as 48%.

In the case of `CC/C=C\CO[C@@]1(c2ccc(Cl)cc2)SC=C(C)n2c1noc2=O`, the inhibition at 4 h is 136%.

As for `CCCCCCOC1(c2ccc(Br)cc2)SC=C(C)n2c1noc2=O` (racemic), the inhibition at 4 h worked out at 72%.

With `CC/C=C/COC1(c2ccc(Cl)cc2)SC=C(C)n2c1noc2=O` (racemic), the inhibition at 4 h came out at 35%.

Consider `CCC/C=C\COC1(c2ccc(Cl)cc2)SC=C(C)n2c1noc2=O` (racemic), for which the inhibition at 4 h came to 131%.

For `CCC/C=C/COC1(c2ccc(Cl)cc2)SC=C(C)n2c1noc2=O` (racemic), the inhibition at 4 h was found to be 109%.

Turning to `CCCCCCOC1(c2ccc(Cl)cc2)SC=C(C)n2c1noc2=O` (racemic), the inhibition at 4 h worked out at 18%.

In the case of `CC/C=C\COC1(c2ccc(Br)cc2)SC=C(C)n2c1noc2=O` (racemic), the inhibition at 4 h worked out at 139%.
